Laboratory results reported in paper PMC7414126 (Scientific Reports, 2020).
Read-outs that look alike come from different tables or passages of the source.

Experiments:
NLuc-hH2R [1] = biological target: T1, NLuc-hH2R (Homo sapiens, UniProt P25021); assay: BRET-based competition binding with fluorescent ligand 8; conditions: competition with 8 (c = 50 nM), live HEK293T cells stably expressing NLuc-hH2R, 60 min; mean ± SEM; read-out: pKi (NanoBRET) (converted)
T1 construct: membrane signal peptide of the murine 5HT3A receptor (N); expressed in transfected cells
T1 sequence (P25021 whole entry): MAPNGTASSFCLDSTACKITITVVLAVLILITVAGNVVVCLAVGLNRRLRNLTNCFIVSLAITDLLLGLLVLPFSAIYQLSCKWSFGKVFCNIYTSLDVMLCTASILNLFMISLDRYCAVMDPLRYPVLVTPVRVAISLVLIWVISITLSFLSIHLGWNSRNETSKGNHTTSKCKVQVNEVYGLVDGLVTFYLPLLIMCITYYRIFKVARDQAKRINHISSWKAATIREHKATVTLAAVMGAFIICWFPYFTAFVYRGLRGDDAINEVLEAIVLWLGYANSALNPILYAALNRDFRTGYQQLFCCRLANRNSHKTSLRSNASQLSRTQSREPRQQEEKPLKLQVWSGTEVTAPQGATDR
Description: (§1) KG, Wertheim, Germany). The cells were then incubated at 37 °C in a humidified atmosphere (no additional CO2) overnight. […] After 60 min incubation time at 27 °C, 10 μL of the substrate furimazine, which was diluted according to manufacturer's protocol beforehand, were added. After 5 min of equilibration time at 27 °C, the measurement was started. […] After addition of the diluted substrate, the plate was placed inside the reader for 5 min to equilibrate. […] Dissociation experiments were conducted in wells, which have been preincubated with 8 as described above for association experiments. […] All measurements were performed on a TECAN InfiniteLumi plate reader (TECAN, Grödig, Austria) at 27 °C using the Blue2 NB (460 nm ± 35 nm, bandpass) and the Red NB (> 610 nm, longpass) filter combination with an integration time of 100 ms. For the kinetic experiments, integration time was increased to 500 ms for both channels to reduce noise. BRET ratios were calculated by dividing the acceptor emission (red NB) by the donor luminescence (Blue2 NB). For all BRET binding experiments, specific binding was calculated by subtracting non-specific binding from total binding yielding the “corrected BRET ratio”. For saturation binding experiments, total and non-specific binding were fitted simultaneously using the “one-site total and nonspecific binding” fit. Specific binding was fitted accordingly applying the “one-site specific binding” fit. […] The normalized competition binding curves were then fitted with a four-parameter logistic fit yielding pIC50-values. These were transformed into pKi-values using the Cheng-Prusoff equation[38].

hH2R-Gsαs fusion protein [2] = biological target: T2, hH2R-Gsαs fusion protein (Homo sapiens, UniProt P25021+P63092); conditions: [3H]UR-DE257; cited from earlier work
T2 construct: made in house; host or cells: Sf9 insect cells (recombinant baculovirus), membrane preparation
T2 sequence (P25021+P63092 fused): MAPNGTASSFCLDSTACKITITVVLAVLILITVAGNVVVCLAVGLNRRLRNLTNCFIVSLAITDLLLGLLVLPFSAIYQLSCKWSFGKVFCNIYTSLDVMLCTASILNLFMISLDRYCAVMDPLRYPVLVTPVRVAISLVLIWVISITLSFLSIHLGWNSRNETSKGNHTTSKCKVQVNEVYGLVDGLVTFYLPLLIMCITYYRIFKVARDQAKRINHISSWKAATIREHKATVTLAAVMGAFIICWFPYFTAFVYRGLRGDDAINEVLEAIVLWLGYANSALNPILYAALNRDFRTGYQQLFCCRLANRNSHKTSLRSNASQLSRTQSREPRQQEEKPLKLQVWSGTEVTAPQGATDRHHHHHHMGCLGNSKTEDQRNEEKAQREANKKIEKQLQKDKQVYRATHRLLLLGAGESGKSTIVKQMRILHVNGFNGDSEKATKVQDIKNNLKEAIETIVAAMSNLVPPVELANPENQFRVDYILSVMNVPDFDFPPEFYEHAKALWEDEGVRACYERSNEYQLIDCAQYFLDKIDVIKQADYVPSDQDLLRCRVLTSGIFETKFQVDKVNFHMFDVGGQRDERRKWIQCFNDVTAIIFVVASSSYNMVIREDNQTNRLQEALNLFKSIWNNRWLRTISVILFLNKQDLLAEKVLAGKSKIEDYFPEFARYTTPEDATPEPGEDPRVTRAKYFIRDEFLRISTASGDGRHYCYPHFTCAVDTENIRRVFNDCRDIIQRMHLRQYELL

hH2R [3] = conditions: [125I]-iodoaminopotentidine, re-calculated from published Ki; cited from earlier work
hH2R-Gsαs fusion protein [4] = biological target: T3, hH2R-Gsαs fusion protein (Homo sapiens, UniProt P25021); assay: Radioligand competition binding with [3H]UR-DE257 on Sf9 membranes; conditions: read-out: pKi (RL comp. binding Sf9 membranes) (converted)
T3 construct: made in house; host or cells: Sf9 insect cells (recombinant baculovirus), membrane preparation
T3 sequence (P25021+P63092 fused): as above
Description: (§2) All data analysis was performed using Prism 5.0c (GraphPad, San Diego, CA, USA).

NLuc-hH2R [5] = biological target: T1, NLuc-hH2R; assay: NanoBRET saturation binding assay
Description: as §1

[6] = Chemical stability in binding buffer (HPLC); assay type: physicochemical
Description: The chemical stability of the fluorescent H2R ligands UR-KAT478 (8), UR-KAT515 (9) and UR-KAT514 (10) was investigated at physiological pH (7.4) in binding buffer (12.5 mM MgCl2, 1 mM EDTA and 75 mM Tris/HCl, pH 7.4)^1 and in case of UR-KAT514 (10) as well in a mixture of DMSO/binding buffer 1:1. Incubation was started by addition of 27.5 μL of a 2.5 mM solution of the respective compounds in DMSO/Millipore H2O 1:1, which were freshly prepared from a 5 mM stock solution in DMSO, to 522.5 μL of binding buffer or DMSO/binding buffer 1:1 yielding a final concentration of […]. The samples were shaken for up to 4 days at 700 rpm. After indicated time periods, a 70 μL aliquot was taken and diluted with 70 µL of a mixture of MeCN, Millipore H2O and 10% aqueous TFA (60:90:1). Prior to HPLC analysis, the samples were stored at -20 °C. 50 μL of the resulting solution were analyzed by HPLC as described in the experimental section. The absorption was detected at 220 nm. The blank HPLC run was performed under identical conditions without any ligand.

hH2R [7] = biological target: T4, hH2R (Homo sapiens, UniProt P25021); assay: Flow cytometric saturation binding assay with HEK293T-hH2R-qs5-HA cells; design: expressed in transfected cells; host or cells: HEK293T-hH2R-qs5-HA cells; conditions: saturation binding at HEK293T-hH2R-qs5-HA cells; mean ± SEM; read-out: pKd (Flow cytometry) (converted)
T4 sequence (P25021 whole entry): as the sequence (P25021 whole entry) above
Description: All flow cytometric measurements were performed with FACSCanto™II flow cytometer (Becton Dickinson, Heidelberg, Germany), equipped with an argon laser (488 nm) and a red diode laser (633 nm) (settings: FCS: A, log, 0 V; SSC: A, log, 252 V; ACP: A,H,W, log, 350 V or PerCP-Cy5-5: A,H, log 485 V or PE: A,H,W, log, 420 V) according to general protocols with minor modifications.^4,5 All measurements were performed in duplicate and recorded either in channel PerCP-Cy5 (Py-1, excitation: 488 nm), APC (BODIPY 630/650, excitation: 633 nm) or PE (TAMRA, excitation: 488 nm). Data acquisition was stopped after 10,000 gated events.
Cell culture and preparation of HEK293T-hH2R-qs5-HA cells was performed as described.^4 Briefly, cells were maintained in 25 or 175 cm^2 flasks (Sarstedt, Nümbrecht, Germany) in a humidified atmosphere (95% air, 5% CO2) at 37 °C using Dulbecco`s Modified Eagle`s Medium supplemented with 2 mM L-glutamine (Sigma-Aldrich, Munich, Germany), 10% FCS, 400 µg/mL geneticin (G418), and 100 µg/mL hygromycin B (AG Scientific, San Diego, CA, USA). On the day of the experiment, cells were detached with trypsin/EDTA (0.05%/0.2%) and centrifuged (500 x g, 5 min). The cell pellet was resuspended in Leibovitz’ L-15 medium containing 1% FCS and the cell density was adjusted to 1 x 10^6 cells/mL. The serial dilutions of the tested fluorescent ligands and famotidine (competitor, for non-specific binding) were prepared in DMSO/H2O (1:1, v/v). All incubation steps were performed in 96-well Primaria^TM plates (CORNING, NY, USA). 200 µL of the adjusted cell suspension were either added to 2 µL of DMSO/H2O (1:1, v/v, total binding) or to 2 µl of famotidine (300-fold excess over the fluorescent ligand, non-specific binding). Incubation was started by addition of 2 µL of the respective fluorescent ligand in different concentrations (100-fold concentrated with respect to the final concentration). […] Samples were transferred to 5 mL polystyrol FACS tubes (Sarstedt, Nümbrecht, Germany) and measured immediately. […]

hH2R [8] = biological target: T4, hH2R; assay: β-Arrestin2 recruitment assay (split-luciferase complementation), HEK293T-ARRB2-H2R cells; assay type: cell-based; design: expressed in transfected cells; host or cells: HEK293T-ARRB2-H2R cell line; conditions: read-out: pKb (β-arrestin2 recruitment) (converted)
Description: One day prior to the experiment, the cells were detached with trypsin/EDTA (0.05%/0.2%) and were centrifuged (500 x g, 5 min). The cells were resuspended in Leibovitz’ L-15 medium + 5% FCS + 10 mM HEPES and the density of the suspension was adjusted to 1.25 x 10^6 cells/mL (agonist mode) or 1.4 x 10^6 cells/mL (antagonist mode). 80 µL (agonist mode) or 70 µL (antagonist mode) of the cell suspension were seeded in white, tissue culture-treated, flat bottom 96-well microtiter plates (Brand, Wertheim, Germany). The cells were incubated at 37 °C overnight in a water saturated atmosphere w/o additional CO2. […] In the meantime, serial dilutions of the tested compounds (10-fold concentrated with respect to the final concentration) were prepared in L-15 + 10 mM HEPES and pre-warmed to 37 °C. After the baseline-read, the dilutions of the test compounds (10 µL/well) were transferred to the 96-well plate. […] For the determination of antagonism, the dilutions of the test compounds (10 µL/well) were transferred to the 96-well plate directly after the addition of D-luciferin (as described above) and the baseline was recorded like in the agonist mode. […] Normalized data were fitted applying a four-parameter logistic fit yielding pIC50 values, which were then transformed into pKb values using the Cheng-Prusoff equation.^8 All data analysis was performed using Prism 5.0c (GraphPad, San Diego, CA, USA).

hH2R-Gsαs fusion protein [9] = biological target: T3, hH2R-Gsαs fusion protein; assay: Radioligand saturation binding on Sf9 membranes; conditions: membranes of Sf9 insect cells expressing hH2R-Gsαs
Description: as §2
Supplementary Figure S7. […] Saturation binding assay was performed as previously described.^3

[10] = representative NanoBRET saturation isotherm, result from single experiment, HEK293T NLuc-hH2R, read-out: Kd* (single experiment)
[11] = saturation binding, live HEK293T cells stably expressing NLuc-hH2R, mean ± SEM, read-out: pKd (NanoBRET) (converted)

NC(N)=Nc1nc(CSCCC(N)=NS(N)(=O)=O)cs1 [Compound 4, famotidine]
Ki (NLuc-hH2R [1]): 11.5 nM
pKi (RL comp. binding Sf9 membranes) (hH2R-Gsαs fusion protein [2]): 6.87[28]
pKi (RL comp. binding CHO membranes) (hH2R [3]): 7.80[32]

Cc1nc(N)sc1CCCNC(=N)NCCCCCCCCNC(=N)NCCCc1sc(N)nc1C [Compound 12, reference compound]
Ki (NLuc-hH2R [1]): 1320 nM
Ki (hH2R-Gsαs fusion protein [4]): 457 nM

O=C(CCCCCNC(=O)COc1ccc(/C=C/C2=[N+]3C(=Cc4ccc(-c5cccs5)n4[B-]3(F)F)C=C2)cc1)NCCCCNc1c(NCCCOc2cccc(CN3CCCCC3)c2)c(=O)c1=O [Compound 10]
Kd (NLuc-hH2R [5]; [10]): 2.99 nM
Kd (NLuc-hH2R [5]; [11]): 2.57 nM
Ki (hH2R-Gsαs fusion protein [4]): 4.47 nM
Adsorption to plastic vessel ([6]; BB/DMSO 1:1, rt): reduced adsorption
Chemical stability (degradation) ([6]; binding buffer pH 7.4, rt): no chemical degradation
HPLC signal of compound after incubation (adsorption to plastic vessel) ([6]; binding buffer pH 7.4, rt, after one hour): almost no signal
Kd (hH2R [7]): 13.8 nM
Kb (hH2R [8]): 8.13 nM

[3H]CC([3H])C(=O)NCCCCCCNc1c(NCCCOc2cccc(CN3CCCCC3)c2)c(=O)c1=O (stereo not drawn) [Compound 7]
Kd (hH2R-Gsαs fusion protein [9]): 11.2 nM

CNC(=C[N+](=O)[O-])NCCSCc1ccc(CN(C)C)o1 [Compound 3, ranitidine]
pKi (RL comp. binding CHO membranes) (hH2R [3]): 7.07[32]

CN/C(=N/CCSCc1nc[nH]c1C)NC#N [Compound 2, cimetidine]
pKi (RL comp. binding CHO membranes) (hH2R [3]): 6.18[32]

CCCCCCCCCCCCNC(=N)NCCCc1sc(N)nc1C [Compound 11, reference compound]
Ki (NLuc-hH2R [1]): 1020 nM
Ki (hH2R-Gsαs fusion protein [4]): 251 nM

CN(C)c1ccc2c(-c3ccc(C(=O)NCCCCNc4c(NCCCOc5cccc(CN6CCCCC6)c5)c(=O)c4=O)cc3C(=O)[O-])c3ccc(N(C)C)cc3[o+]c2c1 [Compound 9, 2-(3,6-Bis(dimethylamino)xanthylium-9-yl)-5-((4-((3,4-dioxo-2-((3-(3-(piperidin-1-ylmethyl)phenoxy)propyl)amino)cyclo-but-1-en-1-yl)amino)butyl)carbamoyl)benzoate]
Kd (NLuc-hH2R [5]; [10]): 143 nM
Kd (NLuc-hH2R [5]; [11]): 145 nM
Ki (hH2R-Gsαs fusion protein [4]): 100 nM
Chemical stability (decomposition) ([6]; binding buffer pH 7.4, rt, 24 h incubation): no decomposition
Kd (hH2R [7]): 562 nM
Kb (hH2R [8]): 66.1 nM
